Tests used:
[1] = target: T1, Tyrosine-protein phosphatase non-receptor type 1 [1-301] (Homo sapiens, UniProt P18031); assay: PTP1B Inhibition Assay
T1 construct: 1-301
T1 sequence (P18031 whole entry): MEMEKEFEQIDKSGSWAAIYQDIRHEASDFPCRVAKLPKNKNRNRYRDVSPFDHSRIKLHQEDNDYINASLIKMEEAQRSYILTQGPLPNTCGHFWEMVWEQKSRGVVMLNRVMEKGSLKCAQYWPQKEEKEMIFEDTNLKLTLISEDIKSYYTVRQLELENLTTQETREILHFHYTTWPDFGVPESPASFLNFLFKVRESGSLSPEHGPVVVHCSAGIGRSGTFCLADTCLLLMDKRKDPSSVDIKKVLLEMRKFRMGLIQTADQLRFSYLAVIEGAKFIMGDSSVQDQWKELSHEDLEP
Description: Kinetic parameters were determined by fitting the reaction rates to different inhibition models as a function of the inhibitor and pNPP concentrations using GraphPad Prism version 6.0d. The total reaction volume in all cases was 500 μL, and the temperature was maintained at 25 °C using a water-regulated cuvette holder.

[2] = target: T1, Tyrosine-protein phosphatase non-receptor type 1 [1-301]; assay: NMR Chemical Shift Titration Assay

`O=C(/C=C/c1ccc(O)c(O)c1)O[C@@H](C(=O)O)[C@@H](OC(=O)/C=C/c1ccc(O)c(O)c1)C(=O)O` [Cichoric acid (CHA)] was tested, and the Ki [1] was 1400 µM and the Kd [2] was 1600 µM.

— BindingDB's records for doi:10.1021/acs.biochem.6b01025 (Washington College, 2017)
